Results reported in ChEMBL document CHEMBL1157868, “Synthesis and antiviral activity of an imidazo[1,2-a]pyrrolo[2,3-c]pyridine series against the bovine viral diarrhea virus” (Eur J Med Chem, 2010).

Tests used:
[1] = system: Bovine viral diarrhea virus 1; test: Antiviral activity against Bovine viral diarrhea virus infected in MDBK cells assessed as protection against virus-induced cytopathogenicity after 5 days; type: functional, organism-based; conditions: Bovine viral diarrhea virus isolates and strains, 120 h
[2] = Cytotoxicity against MDBK cells; type: cell-based, Bos taurus; conditions: cattle
[3] = Selectivity index, CC50 for MDBK cells to EC50 for Bovine viral diarrhea virus; type: toxicity, cell-based; conditions: cattle, read-out: Ratio CC50/EC50

Row | Structure (SMILES) | EC50 [1] [µM] | CC50 [2] [µM] | selectivity ratio [3]
1 | CCOC(=O)c1cc2c(ccn3c([N+](=O)[O-])c(C)nc23)[nH]1 | 64.8 | > 100 | > 1.5
2 | CCOC(=O)c1cc2c(ccn3cc(C(OCC)OCC)nc23)[nH]1 | 2.1 | 99.2 | 46.6
3 | CCOC(=O)c1cc2c(ccn3cc(-c4ccccc4)nc23)[nH]1 | 3.7 | > 100 | > 27.1
4 | CCOC(=O)c1cc2c(ccn3cc(-c4cccc(OC)c4)nc23)[nH]1 | 0.4 | 31.1 | 71
5 | CCOC(=O)c1cc2c(ccn3cc(CO)nc23)[nH]1 | 53.8 | > 100 | > 1.9
6 | CCOC(=O)c1cc2c(ccn3cc(C(F)(F)F)nc23)[nH]1 | 12.8 | > 100 | > 7.8
7 | CCOC(=O)c1cc2c(ccn3cc(C)nc23)n1C | 5.6 | > 100 | > 17.9
8 | COC(=O)c1cc2c(ccn3cc(C)nc23)n1C | 1.7 | > 100 | > 60.6
9 | CCOC(=O)c1cc2c(ccn3cc(C(C)(C)C)nc23)[nH]1 | 50.3 | > 100 | > 2
10 | CCOC(=O)c1cc2c(ccn3c(Br)c(C)nc23)[nH]1 | 78.9 | > 100 | > 1.3
11 | CCOC(=O)c1cc2c(ccn3cc(CN(C)C)nc23)[nH]1 | 46.5 | > 100 | > 2.2
12 | Cc1cn2ccc3[nH]c(CO)cc3c2n1 | 43.9 | > 100 | > 2.3
13 | Cc1cn2ccc3[nH]c(C(=O)O)cc3c2n1 | 5.1 | > 100 | > 19.6
14 | CCOC(=O)c1cc2c(ccn3ccnc23)[nH]1 | 5 | > 100 | > 20
15 | CCOC(=O)c1cc2c(ccn3c(Br)cnc23)[nH]1 | 14.1 | > 100 | > 7.1

Further lines, with some results ahead:

Row | EC50 [1] [µM] | Structure (SMILES) | CC50 [2] [µM] | selectivity ratio [3]
16 | 13.1 | CCOC(=O)c1cc2c(ccn3cc(Br)nc23)[nH]1 | > 100 | > 7.6
17 | 2.1 | CCOC(=O)c1cc2c(ccn3cc(C)nc23)[nH]1 | > 100 | > 47.6
18 | 23.1 | CCOC(=O)c1cc2c(ccn3cc(C(C)C)nc23)[nH]1 | > 100 | > 4.3
19 | 1.1 | COC(=O)c1cc2c(ccn3cc(C)nc23)[nH]1 | > 100 | > 87.2
20 | 2.1 | CCCCOC(=O)c1cc2c(ccn3cc(C)nc23)[nH]1 | 89.8 | 41.8
21 | 47.6 | CCOC(=O)c1cc2c(ccn3cc(CCl)nc23)[nH]1 | > 100 | > 2.1
22 | 21.8 | CCOC(=O)c1cc2c(ccn3cc(C=O)nc23)[nH]1 | > 100 | > 4.6
